Reference: patent publication US20020115642A1, “Beta-lactam antibiotics” (priority 2000, published 2002)
Converted amounts (≈) assume the structure as drawn.

System: E. faecalis
Assay: Susceptibility testing (MIC, modified NCCLS method)
Format: cell-based, Enterococcus faecalis
Settings: E. faecalis (7)
In short: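 Readout OD600 increase. Compounds (aqueous or DMSO stocks) serially diluted 2-fold across 20 concentrations, then inoculated with bacterial broth culture to final ~1-1.5×10^6 cells/ml; screening-adapted NCCLS microdilution.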

Compound O=C(Cc1cccs1)N[C@@H]1C(=O)N2C(C(=O)O)=C(COc3cc(Cl)ccc3Oc3ccc(Cl)cc3Cl)CS[C@H]12 [Compound 9, 3-(2-(2,4-Dichlorophenoxy)-5-chlorophenoxy)methyl-7-(2-thienylacetamido)-3-cephem-4-carboxylic acid] has an MIC range of 8 to 16 µg/mL and an MIC (Enterococcus faecalis, read-out: GM* MIC (geometric mean)) of 8 µg/mL (≈ 12.8 µM).
